In PubChem BioAssay AID330 (DTP/NCI, 2004):
Where “and” joins values, the source holds several entries; their conditions need not be identical. Equal values may be shown once. Inconclusive results and toxic doses are left out. The calls were made as follows: active = survival T/C of 150% or more; inactive = T/C below 125% in these data.

Tested on: P388 leukemia ip, CD2F1 mice, survival T/C
Test: NCI In Vivo Anticancer Drug Screen. Data for tumor model P388 Leukemia (intraperitoneal) in CD2F1 (CDF1) mice
Settings: endpoint: median survival time, higher = longer survival
How it was run: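 Mice carrying the transplanted tumor received test compound or vehicle. Survival was recorded in each group, and the value is the treated-group measurement divided by that of the vehicle-treated control group.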

[1] = dose: 25.0 mg/kg/injection, schedule: Q01DX005 (ip), vehicle: saline
[2] = dose: 50.0 mg/kg/injection, schedule: Q01DX005 (ip), vehicle: saline
[3] = dose: 50.0 mg/kg/injection, schedule: Q01DX009 (ip), vehicle: Klucel (hydroxypropylcellulose) (HPC)
[4] = dose: 100.0 mg/kg/injection, schedule: Q01DX009 (ip), vehicle: Klucel (hydroxypropylcellulose) (HPC)
[5] = dose: 200.0 mg/kg/injection, schedule: Q01DX009 (ip), vehicle: Klucel (hydroxypropylcellulose) (HPC)
[6] = dose: 100.0 mg/kg/injection, schedule: Q04DX003 (ip), vehicle: Klucel (hydroxypropylcellulose) (HPC)
[7] = dose: 200.0 mg/kg/injection, schedule: Q04DX003 (ip), vehicle: Klucel (hydroxypropylcellulose) (HPC)
[8] = dose: 50.0 mg/kg/injection, schedule: Q01DX009 (ip), vehicle: saline with Tween-80
[9] = dose: 100.0 mg/kg/injection, schedule: Q01DX009 (ip), vehicle: saline with Tween-80
[10] = dose: 200.0 mg/kg/injection, schedule: Q01DX009 (ip), vehicle: saline with Tween-80
[11] = dose: 60.0 mg/kg/injection, schedule: Q01DX005 (ip), vehicle: Klucel (hydroxypropylcellulose) (HPC)
[12] = dose: 120.0 mg/kg/injection, schedule: Q01DX005 (ip), vehicle: Klucel (hydroxypropylcellulose) (HPC)
[13] = dose: 50.0 mg/kg/injection, schedule: Q01DX005 (ip), vehicle: Klucel (hydroxypropylcellulose) (HPC)
[14] = dose: 100.0 mg/kg/injection, schedule: Q01DX005 (ip), vehicle: Klucel (hydroxypropylcellulose) (HPC)
[15] = dose: 60.0 mg/kg/injection, schedule: Q01DX005 (ip), vehicle: saline with Tween-80
[16] = dose: 120.0 mg/kg/injection, schedule: Q01DX005 (ip), vehicle: saline with Tween-80
[17] = dose: 50.0 mg/kg/injection, schedule: Q01DX005 (ip), vehicle: saline with Tween-80
[18] = dose: 100.0 mg/kg/injection, schedule: Q01DX005 (ip), vehicle: saline with Tween-80
[19] = dose: 200.0 mg/kg/injection, schedule: Q01DX005 (ip), vehicle: saline with Tween-80
[20] = dose: 240.0 mg/kg/injection, schedule: Q01DX005 (ip), vehicle: saline with Tween-80
[21] = dose: 25.0 mg/kg/injection, schedule: Q01DX009 (ip), vehicle: distilled water + Tween-80
[22] = dose: 50.0 mg/kg/injection, schedule: Q01DX009 (ip), vehicle: distilled water + Tween-80

Measured: T/C

CCCCCCN(CCCCCC)C(=N)c1ccnc2ccccc12
inactive: dose: 12.5 mg/kg/injection, schedule: Q01DX005 (ip), vehicle: saline 92 % of control | [1] 100 % of control | [2] 87 % of control and 94 % of control

CC(C)Oc1ccc(C(=O)NS(=O)(=O)c2ccc(N=Nc3c(O)n(-c4ccccc4)n(-c4ccccc4)c3=O)cc2)cc1
inactive: [3] 94 % of control | [4] 91 % of control | [5] 93 % of control

O=C1CS(=O)(=O)C(c2ccccn2)N1CCN1C(=O)CS(=O)(=O)C1c1ccccn1 (stereo not given)
inactive: dose: 100.0 mg/kg/injection, schedule: Q01DX001 (ip), vehicle: saline with Tween-80 100 % of control and 101 % of control | dose: 100.0 mg/kg/injection, schedule: Q04DX002 (ip), vehicle: saline with Tween-80 90 % of control | dose: 200.0 mg/kg/injection, schedule: Q01DX001 (ip), vehicle: saline with Tween-80 92 % of control and 97 % of control | dose: 200.0 mg/kg/injection, schedule: Q04DX002 (ip), vehicle: saline with Tween-80 98 % of control | dose: 400.0 mg/kg/injection, schedule: Q01DX001 (ip), vehicle: saline with Tween-80 89 % of control and 101 % of control | dose: 400.0 mg/kg/injection, schedule: Q04DX002 (ip), vehicle: saline with Tween-80 91 % of control

C=C(C#N)CSc1c(Cl)c(Cl)c(Cl)c(Cl)c1Cl
inactive: dose: 25.0 mg/kg/injection, schedule: Q04DX003 (ip), vehicle: Klucel (hydroxypropylcellulose) (HPC) 88 % of control | dose: 50.0 mg/kg/injection, schedule: Q04DX003 (ip), vehicle: Klucel (hydroxypropylcellulose) (HPC) 91 % of control | [6] 93 % of control and 95 % of control | [7] 100 % of control and 103 % of control | dose: 400.0 mg/kg/injection, schedule: Q04DX003 (ip), vehicle: Klucel (hydroxypropylcellulose) (HPC) 105 % of control

c1ccc2c(c1)nc1snc(-n3ccnc3)n12
inactive: dose: 50.0 mg/kg/injection, schedule: Q04DX003 (ip), vehicle: saline with Tween-80 103 % of control | dose: 100.0 mg/kg/injection, schedule: Q04DX003 (ip), vehicle: saline with Tween-80 111 % of control | dose: 200.0 mg/kg/injection, schedule: Q04DX003 (ip), vehicle: saline with Tween-80 90 % of control

OC1(O)CCCCN1Cc1ccccc1
inactive: [1] 103 % of control | [2] 101 % of control | dose: 100.0 mg/kg/injection, schedule: Q01DX005 (ip), vehicle: saline 100 % of control | dose: 200.0 mg/kg/injection, schedule: Q01DX005 (ip), vehicle: saline 107 % of control

O=C1c2ccccc2C(=O)C1(Br)C(Cl)c1ccccc1 (stereo not given)
inactive: [3] 90 % of control | [4] 95 % of control | [6] 104 % of control | [7] 100 % of control

O=C1NC(=O)C(=Cc2cc3c(cc2Br)OCO3)C(=O)N1
inactive: dose: 25.0 mg/kg/injection, schedule: Q01DX009 (ip), vehicle: Klucel (hydroxypropylcellulose) (HPC) 101 % of control | [3] 101 % of control | [8] 114 % of control | [4] 117 % of control | [9] 110 % of control and 124 % of control | dose: 166.0 mg/kg/injection, schedule: Q01DX009 (ip), vehicle: saline with Tween-80 117 % of control | [5] 113 % of control | [10] 96 % of control

O=c1[nH]c2c([N+](=O)[O-])cc(Cl)cc2nc1/C=C(\O)c1ccccc1
inactive: [11] 105 % of control | [12] 106 % of control

CC(CN1c2ccccc2Sc2ccccc21)N(C)C (stereo not given)
inactive: dose: 25.0 mg/kg/injection, schedule: Q01DX001 (ip), vehicle: saline 99 % of control | dose: 50.0 mg/kg/injection, schedule: Q01DX001 (ip), vehicle: saline 101 % of control | dose: 100.0 mg/kg/injection, schedule: Q01DX001 (ip), vehicle: saline 95 % of control

O=C(Nc1ccccc1Br)c1cccc([N+](=O)[O-])c1O
inactive: [8] 107 % of control | [9] 98 % of control | [10] 97 % of control

CC(C)COC(CN(C)C)C(Cl)(Cl)Cl (stereo not given)
inactive: dose: 50.0 mg/kg/injection, schedule: Q01DX009 (ip), vehicle: saline 107 % of control | dose: 100.0 mg/kg/injection, schedule: Q01DX009 (ip), vehicle: saline 100 % of control | dose: 200.0 mg/kg/injection, schedule: Q01DX009 (ip), vehicle: saline 116 % of control

Cc1c(C)n(-c2ccccc2)c2nc(C)n(-c3ccccc3Cl)c(=N)c12
inactive: [13] 97 % of control | [14] 90 % of control

CCc1cccc(CC)c1NC(=O)NN(CC)CC
inactive: [15] 93 % of control | [16] 103 % of control

CCCCCCCC/C=C/CCCCCCCC(=O)OCC(=O)OCC
inactive: [3] 102 % of control | [4] 93 % of control | [5] 104 % of control

C1CN1Sc1nc(SN2CC2)nc(SN2CC2)n1
inactive: [11] 100 % of control | [12] 97 % of control

CP1(=S)C=C(N2CCOCC2)CC1 (stereo not given)
inactive: [3] 100 % of control | [4] 100 % of control | [5] 86 % of control

Cc1ccc2c(c1)C(=O)c1c(ccc3ccccc13)C2=O
inactive: [17] 95 % of control | [18] 100 % of control | [19] 104 % of control

CCn1c(=O)cc2n(C)c3ccccc3n2c1=O
inactive: [15] 98 % of control | [16] 94 % of control | [20] 92 % of control

O=C1C=CC(=O)N1c1ccc(I)cc1Cl
inactive: [8] 106 % of control | [9] 104 % of control | [10] 96 % of control

N#C/C(=C\c1cccs1)c1ccccc1
inactive: [8] 102 % of control | [9] 103 % of control | [10] 100 % of control | dose: 400.0 mg/kg/injection, schedule: Q01DX009 (ip), vehicle: saline with Tween-80 105 % of control

Cc1ccc(NC(=O)Nc2nccs2)cc1
inactive: dose: 12.5 mg/kg/injection, schedule: Q01DX009 (ip), vehicle: distilled water + Tween-80 101 % of control | [21] 99 % of control | [22] 90 % of control | dose: 100.0 mg/kg/injection, schedule: Q01DX009 (ip), vehicle: distilled water + Tween-80 99 % of control | dose: 200.0 mg/kg/injection, schedule: Q01DX009 (ip), vehicle: distilled water + Tween-80 105 % of control

COC(=O)N1c2ccccc2[C@@H](O)[C@@H]1OC
inactive: [15] 119 % of control | [16] 116 % of control | [20] 100 % of control

O=Cc1cccc[n+]1Cc1ccc2c(c1)OCO2
inactive: [21] 100 % of control | [22] 100 % of control

Nc1nc(N)c2c(n1)NCN(O)C2
inactive: [17] 97 % of control | [18] 99 % of control | [19] 100 % of control

CN(C(=O)c1cc2c(cc1Br)OCO2)c1ccccc1
inactive: dose: 25.0 mg/kg/injection, schedule: Q01DX009 (ip), vehicle: other 100 % of control | dose: 50.0 mg/kg/injection, schedule: Q01DX009 (ip), vehicle: other 98 % of control | dose: 100.0 mg/kg/injection, schedule: Q01DX009 (ip), vehicle: other 111 % of control

O=C(OCCCl)c1ccccc1NC(=O)N1CCOCC1
inactive: [13] 105 % of control | [14] 99 % of control | dose: 200.0 mg/kg/injection, schedule: Q01DX005 (ip), vehicle: Klucel (hydroxypropylcellulose) (HPC) 98 % of control

COc1cc(C)c2c(OC)c(C)c(=O)oc2c1OC
inactive: dose: 6.25 mg/kg/injection, schedule: Q01DX005 (ip), vehicle: Klucel (hydroxypropylcellulose) (HPC) 105 % of control | dose: 12.5 mg/kg/injection, schedule: Q01DX005 (ip), vehicle: Klucel (hydroxypropylcellulose) (HPC) 100 % of control | dose: 25.0 mg/kg/injection, schedule: Q01DX005 (ip), vehicle: Klucel (hydroxypropylcellulose) (HPC) 97 % of control | [13] 104 % of control
